{"source": "patent US8669251B2", "about": "“8-fluorophthalazin-1(2H)-one compounds” (Genentech, Inc., priority 2011, dated 2014)"}
{"system": "production of CD69 by B lymphocytes in human whole blood", "experiment": "CD69 Whole Blood Assay (CD69 Hu Blood FACS)", "type": "cell-based", "conditions": "human whole blood activated with goat F(ab')2 anti-human IgM, 20 hours; CD69 on CD20 positive cells by FACS; Table 2", "how_it_was_run": "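Heparinized human whole blood from drug-free non-smoking donors was preincubated 30 min at 37° C. with compound (ten-point three-fold series, duplicate). It was then stimulated with goat F(ab′)2 anti-human IgM (50 μg/ml final) for 20 hours, stained, lysed and read by flow cytometry as MFI. IC50/IC70/IC90 were derived by nonlinear regression.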", "units": {"CD69 Hu Blood FACS (IC70)": "nM"}}
{"compound": "C[C@H]1CN(C2COC2)CCN1c1ccc(Nc2cc(-c3ccnc(-n4ncc5cc(C(C)(C)C)cc(F)c5c4=O)c3CO)nn(C)c2=O)nc1", "note": "[Compound 117, 6-tert-butyl-8-fluoro-2-[3-(hydroxymethyl)-4-[1-methyl-5-[[5-[(2S)-2-methyl-4-(oxetan-3-yl)piperazin-1-yl]-2-pyridyl]amino]-6-oxo-pyridazin-3-yl]-2-pyridyl]phthalazin-1-one]", "CD69 Hu Blood FACS (IC70)": 16.5}
{"compound": "Cn1nc(-c2ccnc(-n3ncc4cc(C(C)(C)C)cc(F)c4c3=O)c2CO)cc(Nc2cc3n(n2)CCN(C2COC2)C3)c1=O", "note": "[Compound 155, 6-tert-butyl-8-fluoro-2-[3-(hydroxymethyl)-4-[1-methyl-5-[[5-(oxetan-3-yl)-6,7-dihydro-4H-pyrazolo[1,5-a]pyrazin-2-yl]amino]-6-oxo-pyridazin-3-yl]-2-pyridyl]phthalazin-1-one]", "CD69 Hu Blood FACS (IC70)": 26.6}
{"compound": "Cn1cc(Nc2cc(-c3ccnc(-n4ncc5cc(C(C)(C)C)cc(F)c5c4=O)c3CO)cn(C)c2=O)nn1", "note": "[Compound 149, 6-tert-butyl-8-fluoro-2-[3-(hydroxymethyl)-4-[1-methyl-5-[(1-methyltriazol-4-yl)amino]-6-oxo-3-pyridyl]-2-pyridyl]phthalazin-1-one]", "CD69 Hu Blood FACS (IC70)": 93}
{"compound": "CC(C)C(=O)N1CCn2nc(Nc3cc(-c4ccnc(-n5ncc6cc(C(C)(C)C)cc(F)c6c5=O)c4CO)cn(C)c3=O)cc2C1", "note": "[Compound 148, 6-tert-butyl-8-fluoro-2-[3-(hydroxymethyl)-4-[1-methyl-5-[[5-(2-methylpropanoyl)-6,7-dihydro-4H-pyrazolo[1,5-a]pyrazin-2-yl]amino]-6-oxo-3-pyridyl]-2-pyridyl]phthalazin-1-one]", "CD69 Hu Blood FACS (IC70)": 13.9}
{"compound": "CC(=O)N1CCn2nc(Nc3cc(-c4ccnc(-n5ncc6cc(C(C)(C)C)cc(F)c6c5=O)c4CO)cn(C)c3=O)cc2C1", "note": "[Compound 124, 2-[4-[5-[(5-acetyl-6,7-dihydro-4H-pyrazolo[1,5-a]pyrazin-2-yl)amino]-1-methyl-6-oxo-3-pyridyl]-3-(hydroxymethyl)-2-pyridyl]-6-tert-butyl-8-fluoro-phthalazin-1-one]", "CD69 Hu Blood FACS (IC70)": 41.5}
{"compound": "CN1Cc2cc(Nc3cc(-c4ccnc(-n5ncc6cc(C(C)(C)C)cc(F)c6c5=O)c4CO)cn(C)c3=O)nn2CC1=O", "note": "[Compound 146, 6-tert-butyl-8-fluoro-2-[3-(hydroxymethyl)-4-[1-methyl-5-[(5-methyl-6-oxo-4,7-dihydropyrazolo[1,5-a]pyrazin-2-yl)amino]-6-oxo-3-pyridyl]-2-pyridyl]phthalazin-1-one]", "CD69 Hu Blood FACS (IC70)": 20.9}
{"compound": "CC1OCCn2nc(Nc3cc(-c4ccnc(-n5ncc6cc(C(C)(C)C)cc(F)c6c5=O)c4CO)cn(C)c3=O)cc21", "note": "(stereo not shown) [Compound 150, 6-tert-butyl-8-fluoro-2-[3-(hydroxymethyl)-4-[1-methyl-5-[(4-methyl-6,7-dihydro-4H-pyrazolo[5,1-c][1,4]oxazin-2-yl)amino]-6-oxo-3-pyridyl]-2-pyridyl]phthalazin-1-one]", "CD69 Hu Blood FACS (IC70)": 42.8}
